{"source": "PubChem BioAssay AID1352", "about": "(Sanford-Burnham Center for Chemical Genomics, 2008)", "system": "differentiated PC12, thapsigargin-induced death, ATPlite luminescence, 24 h", "experiment": "rescue of neuronal PC12 from thapsigargin, SAR follow-up, cell-based, differentiated PC12, rat pheochromocytoma, ATP luminescence (AID 1352)", "conditions": "at 25 µM, stronger effect = higher value; for survival: measured here: survival", "note": "Calls of active or inactive are those of the source.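 The calls were made as follows: active = compound at 25 µM lifting cell survival 30% over the thapsigargin-only control at any thapsigargin dose; inactive = the rest.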"}
{"smiles": "CSc1ccc(C2Nc3ccccc3NC3=C2C(=O)CC(c2ccccc2)C3)cc1", "note": "(stereo not drawn)", "values": [{"measurement": "survival vs thapsigargin 6.25 uM", "result": "30% (inactive)"}, {"measurement": "survival", "setting": "thapsigargin 0.25 uM", "result": 22, "unit": "%"}, {"measurement": "survival", "setting": "thapsigargin 1.25 uM", "result": 17, "unit": "%"}]}
{"smiles": "COc1ccc(C2CC(=O)C3=C(C2)Nc2ccccc2NC3c2cccc(Oc3ccccc3)c2)cc1OC", "note": "(stereo not drawn)", "values": [{"measurement": "survival vs thapsigargin 6.25 uM", "result": "25% (inactive)"}, {"measurement": "survival", "setting": "thapsigargin 0.25 uM", "result": 21, "unit": "%"}, {"measurement": "survival", "setting": "thapsigargin 1.25 uM", "result": 16, "unit": "%"}]}
{"smiles": "COc1ccc(C2CC(=O)C3=C(C2)Nc2ccccc2NC3c2cc(C)ccc2C)cc1", "note": "(stereo not drawn)", "values": [{"measurement": "survival vs thapsigargin 6.25 uM", "result": 38, "unit": "%"}, {"measurement": "survival", "setting": "thapsigargin 0.25 uM", "result": 51, "unit": "%"}, {"measurement": "survival", "setting": "thapsigargin 1.25 uM", "result": 29, "unit": "%"}]}
{"smiles": "CC1(C)CC(=O)C2=C(C1)Nc1ccccc1NC2c1ccc(-c2ccccc2)cc1", "note": "(stereo not drawn)", "values": [{"measurement": "survival vs thapsigargin 6.25 uM", "result": 81, "unit": "%"}, {"measurement": "survival", "setting": "thapsigargin 0.25 uM", "result": 76, "unit": "%"}, {"measurement": "survival", "setting": "thapsigargin 1.25 uM", "result": 41, "unit": "%"}]}
{"smiles": "COc1ccc(C2CC(=O)C3=C(C2)Nc2ccccc2NC3c2cccc(Br)c2)cc1OC", "note": "(stereo not drawn)", "values": [{"measurement": "survival vs thapsigargin 6.25 uM", "result": 54, "unit": "%"}, {"measurement": "survival", "setting": "thapsigargin 0.25 uM", "result": 54, "unit": "%"}, {"measurement": "survival", "setting": "thapsigargin 1.25 uM", "result": 37, "unit": "%"}]}
{"smiles": "COc1ccc(C2CC(=O)C3=C(C2)Nc2ccccc2NC3c2cccc(C(F)(F)F)c2)cc1OC", "note": "(stereo not drawn)", "values": [{"measurement": "survival vs thapsigargin 6.25 uM", "result": 78, "unit": "%"}, {"measurement": "survival", "setting": "thapsigargin 0.25 uM", "result": 44, "unit": "%"}, {"measurement": "survival", "setting": "thapsigargin 1.25 uM", "result": 48, "unit": "%"}]}
{"smiles": "O=C1CC(c2ccccc2)CC2=C1C(c1c(F)cccc1Cl)Nc1ccccc1N2", "note": "(stereo not drawn)", "values": [{"measurement": "survival vs thapsigargin 6.25 uM", "result": "39% (inactive)"}, {"measurement": "survival", "setting": "thapsigargin 0.25 uM", "result": 38, "unit": "%"}, {"measurement": "survival", "setting": "thapsigargin 1.25 uM", "result": 19, "unit": "%"}]}
{"smiles": "CCCOc1ccc(C2Nc3ccccc3NC3=C2C(=O)CC(c2ccc(OC)c(OC)c2)C3)cc1", "note": "(stereo not drawn)", "values": [{"measurement": "survival vs thapsigargin 6.25 uM", "result": "33% (inactive)"}, {"measurement": "survival", "setting": "thapsigargin 0.25 uM", "result": 32, "unit": "%"}, {"measurement": "survival", "setting": "thapsigargin 1.25 uM", "result": 22, "unit": "%"}]}
{"smiles": "CCOc1cccc(C2Nc3ccccc3NC3=C2C(=O)CC(c2ccc(OC)cc2)C3)c1", "note": "(stereo not drawn)", "values": [{"measurement": "survival vs thapsigargin 6.25 uM", "result": "32% (inactive)"}, {"measurement": "survival", "setting": "thapsigargin 0.25 uM", "result": 26, "unit": "%"}, {"measurement": "survival", "setting": "thapsigargin 1.25 uM", "result": 19, "unit": "%"}]}
{"smiles": "COc1ccc(C2CC(=O)C3=C(C2)Nc2ccccc2NC3c2ccccc2C(F)(F)F)cc1OC", "note": "(stereo not drawn)", "values": [{"measurement": "survival vs thapsigargin 6.25 uM", "result": "34% (inactive)"}, {"measurement": "survival", "setting": "thapsigargin 0.25 uM", "result": 30, "unit": "%"}, {"measurement": "survival", "setting": "thapsigargin 1.25 uM", "result": 25, "unit": "%"}]}
{"smiles": "CCOc1cc(C2Nc3ccccc3NC3=C2C(=O)CC(c2ccc(OC)cc2)C3)cc(Cl)c1O", "note": "(stereo not drawn)", "values": [{"measurement": "survival vs thapsigargin 6.25 uM", "result": 44, "unit": "%"}, {"measurement": "survival", "setting": "thapsigargin 0.25 uM", "result": 59, "unit": "%"}, {"measurement": "survival", "setting": "thapsigargin 1.25 uM", "result": 38, "unit": "%"}]}
